Data on 21 compounds can be found in patent publication US8350027B2, “Dual-acting pyrazole antihypertensive agents” (Theravance, Inc., priority 2009, dated 2013).

In one experiment the target is T1, NEP enzyme (Homo sapiens, UniProt P08473).
T1 construct: purchased R&D Systems, Minneapolis, Minn; 1182-ZN
Description: NEP enzyme inhibition assay (fluorogenic peptide substrate). The format is biochemical. To be noted: values given as lower bounds; * = prodrugs, may not exhibit NEP activity in an in vitro assay; read-out: NEP pIC50 (converted). An outline of the steps:
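Recombinant human NEP was run with Mca-BK2 (10 μM) at room temperature in Tris buffer with 1 μM Zn. Compounds (10 μM–20 pM, 12 points) were pre-equilibrated 10 min, then reacted 20 min and acid-stopped. Fluorescence ex 320/em 405 nm, one-site competition fit gives pIC50. Thiol compounds may be pre-treated with 400 μM TCEP.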

A further experiment addresses T2, human AT1 receptor (Homo sapiens, UniProt P30556).
T2 construct: expressed in transfected cells; host or cells: CHO-K1
T2 sequence (P30556 1-359): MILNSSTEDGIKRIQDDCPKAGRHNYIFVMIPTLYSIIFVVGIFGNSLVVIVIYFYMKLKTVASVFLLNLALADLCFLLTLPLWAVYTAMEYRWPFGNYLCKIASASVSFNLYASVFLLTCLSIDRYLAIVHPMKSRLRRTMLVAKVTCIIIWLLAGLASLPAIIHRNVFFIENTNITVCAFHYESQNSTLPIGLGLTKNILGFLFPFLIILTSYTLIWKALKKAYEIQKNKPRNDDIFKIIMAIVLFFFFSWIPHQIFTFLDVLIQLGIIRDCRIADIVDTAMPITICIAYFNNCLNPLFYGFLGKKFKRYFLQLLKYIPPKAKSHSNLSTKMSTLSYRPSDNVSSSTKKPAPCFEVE
Description: AT1 radioligand binding assay (displacement of [Eu]AngII). The following applies: membranes of CHO-K1 cells expressing cloned human AT1 receptor; values given as lower bounds; read-out: AT1 pKi (converted). An outline of the steps:
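Membranes from CHO-K1 cells stably expressing cloned human AT1, 0.2 μg protein, in 50 mM Tris/HCl pH 7.5, 5 mM MgCl2, 0.025% BSA. Compounds displaced [Eu]AngII over 120 min in the dark at room temperature or 37° C; filter-bound TRF read. Nonspecific binding with 10 μM angiotensin II; IC50 converted to Ki via Cheng-Prusoff, reported as pKi.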

T1 sequence (P08473 52-750 limits assumed): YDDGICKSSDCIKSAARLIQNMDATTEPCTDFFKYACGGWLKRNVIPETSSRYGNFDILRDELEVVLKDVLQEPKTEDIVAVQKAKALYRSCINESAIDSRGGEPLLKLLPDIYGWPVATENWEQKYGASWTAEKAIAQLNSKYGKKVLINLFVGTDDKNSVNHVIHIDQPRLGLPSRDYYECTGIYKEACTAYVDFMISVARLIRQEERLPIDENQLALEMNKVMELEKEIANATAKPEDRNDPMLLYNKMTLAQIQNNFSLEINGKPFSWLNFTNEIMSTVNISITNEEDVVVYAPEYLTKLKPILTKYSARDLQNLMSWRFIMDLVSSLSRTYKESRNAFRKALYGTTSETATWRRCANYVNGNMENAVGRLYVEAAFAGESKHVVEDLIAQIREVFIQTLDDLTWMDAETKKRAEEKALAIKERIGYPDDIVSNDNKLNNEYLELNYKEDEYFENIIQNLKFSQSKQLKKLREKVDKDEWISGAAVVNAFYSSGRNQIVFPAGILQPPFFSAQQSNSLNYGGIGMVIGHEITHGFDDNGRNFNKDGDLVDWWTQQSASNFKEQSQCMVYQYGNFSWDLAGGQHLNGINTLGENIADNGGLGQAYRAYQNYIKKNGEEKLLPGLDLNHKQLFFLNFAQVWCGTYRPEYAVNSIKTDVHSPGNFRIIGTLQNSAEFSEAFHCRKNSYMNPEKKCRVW

On to `CCCc1cc(C(=O)N[C@@H](CC(=O)O)Cc2ccccc2C(F)(F)F)nn1Cc1ccc(-c2ccccc2-c2nnn[nH]2)nc1` [Example 11, (R)-3-[(5-Propyl-1-{6-[2-(1H-tetrazol-5-yl)-phenyl]-pyridin-3-ylmethyl}-1H-pyrazole-3-carbonyl)-amino]-4-(2-trifluoromethylphenyl)butyric Acid], for which the IC50 on NEP enzyme is not above 100 nM. In addition, the Ki at human AT1 receptor was not above 10 nM.
On the same counts, the results for `CCCc1cc(C(=O)N[C@@H](CC(=O)OC)Cc2ccccc2Cl)nn1Cc1ccc(-c2ccccc2-c2nnn[nH]2)cc1` [Example 3-28, (R)-4-(2-Chlorophenyl)-3-({5-propyl-1-[2′-(1H-tetrazol-5-yl)biphenyl-4-ylmethyl]-1H-pyrazole-3-carbonyl}amino)butyric acid methyl ester] are not above 10000 nM and not above 10 nM.
On the same counts, the results for `CCCc1cc(C(=O)N[C@@H](CS)Cc2ccccc2)nn1Cc1ccc(-c2ccccc2C(=O)O)cc1F` [Example 8, 4′-[3-((R)-1-Benzyl-2-mercaptoethylcarbamoyl)-5-propylpyrazol-1-ylmethyl]-3′-fluorobiphenyl-2-carboxylic acid] are not above 100 nM and not above 100 nM.
On the same counts, the results for `CCCc1cc(C(=O)N[C@H](CC(C)C)CN(O)C=O)nn1Cc1ccc(-c2ccccc2S(=O)(=O)NC(C)=O)cc1` [Example 6-15, 1-(2′-Acetylsulfamoyl-biphenyl-4-ylmethyl)-5-propyl-1H-pyrazole-3-carboxylic acid {(R)-1-[(formyl-hydroxy-amino)-methyl]-3-methylbutyl}amide] are not above 100 nM and not above 10 nM.
As to `CCc1cc(C(=O)N[C@H](Cc2ccccc2)[C@@H](O)C(=O)O)nn1Cc1ccc(-c2ccccc2S(=O)(=O)NC(C)=O)cc1F` [Example 6-10, (2R,3R)-3-{[1-(2′-Acetylsulfamoyl-3-fluoro-biphenyl-4-ylmethyl)-5-ethyl-1H-pyrazole-3-carbonyl]amino}-2-hydroxy-4-phenylbutyric acid], the IC50 on NEP enzyme was not above 100 nM. Besides, the Ki at human AT1 receptor was not above 100 nM.
Take `CCCc1cc(C(=O)N[C@H](CC(C)C)CN(O)C=O)nn1Cc1ccc(-c2ccccc2-c2nnn[nH]2)cc1` [Example 3-25, 5-Propyl-1-[2′-(1H-tetrazol-5-yl)-biphenyl-4-ylmethyl]-1H-pyrazole-3-carboxylic acid {(R)-1-[(formylhydroxyamino)methyl]-3-methylbutyl}amide]: the IC50 at NEP enzyme is not above 100 nM. For the same compound, at human AT1 receptor, the Ki is not above 10 nM.
The matching figures for `CCCc1cc(C(=O)N[C@H](Cc2ccccc2)[C@@H](O)C(=O)O)nn1Cc1ccc(-c2ccccc2-n2nn[nH]c2=O)cc1` [Example 16-3, (2R,3R)-2-Hydroxy-3-({1-[2′-(5-oxo-4,5-dihydrotetrazol-1-yl)-biphenyl-4-ylmethyl]-5-propyl-1H-pyrazole-3-carbonyl}amino)-4-phenylbutyric acid]: not above 100 nM and not above 10 nM.
The matching figures for `CCCc1cc(C(=O)N[C@@H](CC(=O)O)Cc2ccccc2)nn1Cc1ccc(-c2ccccc2S(=O)(=O)NC(C)=O)nc1` [Example 14-15, (R)-3-({1-[6-(2-Acetylsulfamoylphenyl)-pyridin-3-ylmethyl]-5-propyl-1H-pyrazole-3-carbonyl}-amino)-4-phenylbutyric acid]: not above 1000 nM and not above 10 nM.
On the same counts, the results for `CCCc1cc(C(=O)N[C@H](Cc2ccccc2)[C@@H](O)C(=O)O)nn1Cc1ccc(-c2ccccc2S(=O)(=O)NC(=O)c2ccccc2)cc1` [Example 7-12, (2R,3R)-3-{[1-(2′-Benzoylsulfamoylbiphenyl-4-ylmethyl)-5-propyl-1H-pyrazole-3-carbonyl]amino}-2-hydroxy-4-phenylbutyric acid] are not above 1000 nM and not above 10 nM.
On to `CCCc1cc(C(=O)N[C@H](Cc2ccccc2)[C@@H](O)C(=O)O)nn1Cc1ccc(-c2ccccc2S(=O)(=O)NC(=O)c2ccno2)cc1` [Example 7-6, (2R,3R)-2-Hydroxy-3-[(1-{2′-[(isoxazole-5-carbonyl)sulfamoyl]biphenyl-4-ylmethyl}-5-propyl-1H-pyrazole-3-carbonyl)amino]-4-phenylbutyric acid], for which the IC50 on NEP enzyme is not above 1000 nM. Besides, on human AT1 receptor, the Ki is not above 10 nM.
The matching figures for `CCOc1cc(C(=O)N[C@@H](CS)Cc2ccccc2)nn1Cc1ccc(-c2ccccc2S(=O)(=O)NC(C)=O)cc1` [Example 6-2, 1-(2′-Acetylsulfamoyl-biphenyl-4-ylmethyl)-5-ethoxy-1H-pyrazole-3-carboxylic acid ((R)-1-benzyl-2-mercaptoethyl)amide]: not above 100 nM and not above 10 nM.
For `CCOc1cc(C(=O)N[C@@H](CS)Cc2ccccc2)nn1Cc1ccc(-c2ccccc2-c2nnn[nH]2)cc1` [Example 3-4, 5-Ethoxy-1-[2′-(1H-tetrazol-5-yl)biphenyl-4-ylmethyl]-1H-pyrazole-3-carboxylic acid ((R)-1-benzyl-2-mercaptoethyl)amide], at NEP enzyme, the IC50 was not above 100 nM. At human AT1 receptor, the Ki is not above 10 nM.
On the same counts, the results for `CCCc1cc(C(=O)N[C@H](Cc2ccccc2)CN(O)C=O)nn1Cc1ccc(-c2ccccc2S(=O)(=O)NC(C)=O)cc1` [Example 6-13, 1-(2′-Acetylsulfamoyl-biphenyl-4-ylmethyl)-5-propyl-1H-pyrazole-3-carboxylic acid [(R)-1-benzyl-2-(formyl-hydroxy-amino)-ethyl]amide] are not above 100 nM and not above 10 nM.
On the same counts, the results for `CCCc1cc(C(=O)N[C@@H](CS)CC(C)C)nn1Cc1ccc(-c2ccccc2-c2nnn[nH]2)cc1` [Example 3-7, 5-Propyl-1-[2′-(1H-tetrazol-5-yl)biphenyl-4-ylmethyl]-1H-pyrazole-3-carboxylic acid ((R)-1-mercaptomethyl-3-methylbutyl)amide] are not above 100 nM and not above 10 nM.
The matching figures for `CCCc1cc(C(=O)N[C@@H](CC(=O)O)Cc2ccsc2)nn1Cc1ccc(-c2ccccc2-c2nnn[nH]2)nc1` [Example 14-10, (R)-3-[(5-Propyl-1-{6-[2-(1H-tetrazol-5-yl)-phenyl]-pyridin-3-ylmethyl}-1H-pyrazole-3-carbonyl)-amino]-4-thiophen-3-yl-butyric acid]: not above 100 nM and not above 10 nM.
On to `CCCc1cc(C(=O)N[C@@H](CC(=O)O)Cc2ccccc2)nn1Cc1ccc(-c2ccccc2-c2nnn[nH]2)cc1F` [Example 3-30, (R)-3-({1-[3-Fluoro-2′-(1H-tetrazol-5-yl)biphenyl-4-ylmethyl]-5-propyl-1H-pyrazole-3-carbonyl}amino)-4-phenylbutyric acid], for which the IC50 on NEP enzyme is not above 10000 nM. Moreover, the Ki on human AT1 receptor was not above 10 nM.
On the same counts, the results for `CCOc1cc(C(=O)N[C@H](Cc2ccccc2)[C@@H](O)C(=O)O)nn1Cc1ccc(-c2ccccc2S(=O)(=O)NC(C)=O)cc1F` [Example 6-4, (2R,3R)-3-{[1-(2′-Acetylsulfamoyl-3-fluorobiphenyl-4-ylmethyl)-5-ethoxy-1H-pyrazole-3-carbonyl]amino}-2-hydroxy-4-phenylbutyric acid] are not above 100 nM and not above 10 nM.
On the same counts, the results for `CCCc1cc(C(=O)N[C@@H](CC(=O)O)Cc2ccco2)nn1Cc1ccc(-c2ccccc2-c2nnn[nH]2)nc1` [Example 14-11, (R)-4-Furan-2-yl-3-[(5-propyl-1-{6-[2-(1H-tetrazol-5-yl)phenyl]pyridin-3-ylmethyl}-1H-pyrazole-3-carbonyl)amino]butyric acid] are not above 1000 nM and not above 10 nM.
The matching figures for `CCCc1cc(C(=O)N[C@@H](CC(=O)O)Cc2ccccc2Cl)nn1Cc1ccc(-c2ccccc2-c2nnn[nH]2)cc1` [Example 3-34, (R)-4-(2-Chlorophenyl)-3-({5-propyl-1-[2′-(1H-tetrazol-5-yl)biphenyl-4-ylmethyl]-1H-pyrazole-3-carbonyl}amino)butyric acid]: not above 10000 nM and not above 10 nM.
Consider `CCCc1cc(C(=O)N[C@H](Cc2ccccc2)[C@@H](O)C(=O)O)nn1Cc1cnc(-c2ccccc2S(=O)(=O)NC(C)=O)cn1` [Example 17-5, (2R,3R)-3-({1-[5-(2-Acetylsulfamoylphenyl)pyrazin-2-ylmethyl]-5-propyl-1H-pyrazole-3-carbonyl}amino)-2-hydroxy-4-phenylbutyric acid], for which, on NEP enzyme, the IC50 was not above 100 nM. The Ki on human AT1 receptor is not above 100 nM.
For `CCCc1cc(C(=O)N[C@@H](CS)CC(C)C)nn1Cc1ccc(-c2ccccc2C(=O)O)cc1F` [Example 9-1, 3′-Fluoro-4′-[3-((R)-1-mercaptomethyl-3-methylbutylcarbamoyl)-5-propylpyrazol-1-ylmethyl]biphenyl-2-carboxylic acid], the IC50 at NEP enzyme was not above 100 nM. Moreover, the Ki on human AT1 receptor is not above 100 nM.
